Measurements reported in article PMC11714206, “Massively Parallel Screening of Toll/Interleukin‐1 Receptor (TIR)‐Derived Peptides Reveals Multiple Toll‐Like Receptors (TLRs)‐Targeting Immunomodulatory Peptides” (Advanced Science, 2024).

Target: T1, MyD88^TIR (Homo sapiens, UniProt Q99836)
T1 construct: MyD88 (residues 148–296); 6xHis; made in house; host or cells: E. coli BL21 (DE3)
Test: T‐Surf phage library (P8 and P3) selection against MyD88^TIR, four rounds, NGS read counts
Format: binding
Settings: for P3_MyD88 Rank (after) / P3_MyD88 Rank (before): P3 library; for Population: 4th round of selection against MyD88 TIR, share of NGS reads; for P8_MyD88 Rank (after) / P8_MyD88 Rank (before): P8 library
Protocol: T‐Surf libraries were screened against the immobilized TIR domains of two major human TLR adaptor proteins, MAL^TIR and MyD88^TIR, allowing cross‐species selection of TIR‐binding motifs with 190 946 TIR‐derived peptides in a single binding assay (Scheme 1). Enriched phage pools from the fourth round of selection were analyzed using NGS after barcoding the peptide‐coding regions of the phage pools.
Phage display screening was performed by coating two wells of a 96‐well plate (Maxisorp, Thermo Fisher Scientific) with 100 µL of 5 µg mL^−1 TIR domains overnight; then, the coated wells were blocked with 200 µL of blocking buffer (0.2% BSA in PBS) and set aside for 1 h at 4 °C with gentle shaking. Next, 100 µL of the phage library was added to the wells and incubated for 1 h at room temperature (RT; 20 – 22 °C) with gentle shaking. The plate was washed four times with PBS containing 0.5% Tween‐20; the bound phages were eluted by adding 100 µL of 100 mM HCl to each well. The elute was neutralized with 10 µL of 1.0 M Tris‐HCl (pH 11.0). E. coli TG1 cells were grown to the log phase (A600 = ≈0.6), and 1 mL of the culture was incubated with 100 µL of the eluted phages for 30 min at 37 °C, with shaking at 200 rpm. Next, 1 µL of M13KO7 helper phages was added, followed by incubation for 45 min at 37 °C, with shaking. Subsequently, the cells were transferred to 25 mL of 2× yeast extract tryptone/carbenicillin/kanamycin medium and incubated overnight at 37 °C with shaking at 200 rpm. The amplified phages were precipitated with 20% PEG‐8000/2.5 M NaCl to be used for the next round of selection.
The naïve T‐Surf libraries in P8 and P3 and the enriched phage pools after four rounds were barcoded for NGS as previously described.^[ [59] ^] Briefly, 5 µL of the phage pool was used as a template for 20 cycles of a 50 µL PCR reaction using […] each of forward and reverse barcoded primers and PrimeSTAR Max DNA Polymerase. The PCR products were purified using Expin Gel SV (GeneAll). The NGS samples were quantified using qPCR, following the qPCR Quantification Protocol Guide (KAPA Library Quantification kits for Illumina Sequencing Platform), and qualified using the TapeStation High Sensitivity D1000 ScreenTape (Agilent Technologies). The indexed libraries were further sequenced by Macrogen (Seoul, Republic of Korea) using the NovaSeq platform (Illumina) with 100 bp paired‐end reads. The reads were demultiplexed by barcodes and filtered for an average Phred quality score of at least 30, followed by trimming the flanking consensus sequences using Cutadapt (version 2.3). Peptide sequence populations were analyzed according to the read counts.

[1] = selection against MyD88, rank after grouping
[2] = selection against MyD88, rank before grouping
[3] = selection against MyD88 TIR, rank by count after grouping
[4] = selection against MyD88 TIR, rank by count before grouping
[5] = P3_MyD88: rank by count after grouping
[6] = P3_MyD88: rank by count before grouping
[7] = P8_MyD88 pool: P8 T-Surf phage library
[8] = P8_MyD88: rank by count after grouping
[9] = P8_MyD88: rank by count before grouping
[10] = 4R selection against MyD88, rank after grouping
[11] = 4R selection against MyD88, rank before grouping
[12] = P3_MyD88 pool: P3 T-Surf phage library
[13] = selection against MyD88, rank by count after grouping
[14] = selection against MyD88, rank by count before grouping
[15] = P8_MyD88: rank by NGS read count after grouping
[16] = P8_MyD88: rank by NGS read count before grouping

T1 sequence (Q99836 148-296): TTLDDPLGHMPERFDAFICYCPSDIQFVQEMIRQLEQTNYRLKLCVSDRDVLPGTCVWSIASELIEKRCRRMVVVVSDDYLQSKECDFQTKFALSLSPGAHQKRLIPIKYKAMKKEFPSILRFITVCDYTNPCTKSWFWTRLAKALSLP

GWIREHLWPLLKQRMT
P3_MyD88 Rank (after) [1]: 521 | P3_MyD88 Rank (before) [2]: 1877

NQLRNAQTAAANLSGW
P3_MyD88 Rank (after) [3]: 233 | P3_MyD88 Rank (before) [4]: 3463

SSVRGGRWGLVELGKK
Rank (after) [5]: 455 | Rank (before) [6]: 3269

LGYHWIDWEYFV
Population [7]: 0.0274%

YSFLSHLAAAFELHGI
P8_MyD88 Rank (after) [3]: 285 | P8_MyD88 Rank (before) [4]: 543

DPQDLDWFYERLLSLS
Rank (after) [8]: 422 | Rank (before) [9]: 2764

SAAYDDIWERLNRMIE
Rank (after) [8]: 481 | Rank (before) [9]: 3737

DPHQHQAFWDRLWEKL
P8_MyD88 Rank (after) [3]: 286 | P8_MyD88 Rank (before) [4]: 560

EWIREQLCLALKERLP
P3_MyD88 Rank (after) [10]: 637 | P3_MyD88 Rank (before) [11]: 2133

AVAHEISKKMKIFATI
Population [12]: 0.00262%

GEDTLYTFTGHLQATL
P3_MyD88 Rank (after) [13]: 719 | P3_MyD88 Rank (before) [14]: 1830

RISAFHQQLVIALEAQ
P3_MyD88 Rank (after) [10]: 650 | P3_MyD88 Rank (before) [11]: 2595

DPQELEWFYERLLSQM
P8_MyD88 Rank (after) [10]: 620 | P8_MyD88 Rank (before) [11]: 2993

DPQDLDGCYERLVSLF
Rank (after) [8]: 393 | Rank (before) [9]: 2837

SPLSYMWLDELVEIME
Rank (after) [15]: 944 | Rank (before) [16]: 3764

VGKLKKGESFAPELLR
P3_MyD88 Rank (after) [3]: 229 | P3_MyD88 Rank (before) [4]: 1765

YYFTIGIAKRKLSRK
P8_MyD88 Rank (after) [13]: 692 | P8_MyD88 Rank (before) [14]: 1687

EWALHQLQQIIKWHQT
P8_MyD88 Rank (after) [3]: 212 | P8_MyD88 Rank (before) [4]: 323

SIATLLYDQLSWLDIH
P8_MyD88 Rank (after) [3]: 201 | P8_MyD88 Rank (before) [4]: 293

DWVWDYLLPNGRPSG
Rank (after) [15]: 987 | Rank (before) [16]: 2420

DSLFWDRLLPNLEGPAG
P8_MyD88 Rank (after) [10]: 645 | P8_MyD88 Rank (before) [11]: 3104

LGYQWIEWEYFVGIED
P8_MyD88 Rank (after) [3]: 250 | P8_MyD88 Rank (before) [4]: 1186

SSICEGLWRLLELSKK
Rank (after) [5]: 453 | Rank (before) [6]: 3276

DPQDLQWFYECLVSLL
P8_MyD88 Rank (after) [1]: 514 | P8_MyD88 Rank (before) [2]: 2911

DPQDLDWFYERLVSQM
Rank (after) [8]: 183 | Rank (before) [9]: 466

DPQDLQWFCERLVSLF
P8_MyD88 Rank (after) [3]: 281 | P8_MyD88 Rank (before) [4]: 2908

DPQGLDWFYERLFSQM
Rank (after) [8]: 396 | Rank (before) [9]: 2679

DPHGLEWIYERLVSLF
Rank (after) [15]: 923 | Rank (before) [16]: 2629

SSSFALHELATILEAL
Rank (after) [8]: 412 | Rank (before) [9]: 1290

LGYHWIDWAYSVGIED
P8_MyD88 Rank (after) [13]: 750 | P8_MyD88 Rank (before) [14]: 3251

LKWGDPYFWSKLLYSM
P3_MyD88 Rank (after) [3]: 247 | P3_MyD88 Rank (before) [4]: 2423

YASSSWALDELWNIF
Rank (after) [8]: 167 | Rank (before) [9]: 193 | Population [7]: 0.00617%

WILRAIWNSFGIVCI
Rank (after) [8]: 475 | Rank (before) [9]: 1653

WFLFTVRSAIYAMSPA
Rank (after) [15]: 921 | Rank (before) [16]: 1358

DYASSTWWLRELLYA
Rank (after) [8]: 434 | Rank (before) [9]: 1060

DPQDLEWFYERLVSLIP
Rank (after) [8]: 453 | Rank (before) [9]: 2884

SELCVVAEGSVSPLDM
P3_MyD88 Rank (after) [10]: 587 | P3_MyD88 Rank (before) [11]: 3010

YASSIWALNELIRILE
Rank (after) [8]: 138 | Rank (before) [9]: 149 | Population [7]: 0.0108%

NGHESEIIKEIVDTM
Rank (after) [5]: 436 | Rank (before) [6]: 3365

NELVHVWSSKANSLVGQ
Rank (after) [5]: 186 | Rank (before) [6]: 1250

VDPSHLRKQSGEFG
P3_MyD88 Rank (after) [13]: 683 | P3_MyD88 Rank (before) [14]: 1770

NQWRNALTAAASLSGW
Population [12]: 0.00291%

MFGGATLHDVLELISM
P8_MyD88 Rank (after) [1]: 509 | P8_MyD88 Rank (before) [2]: 3654

DPQDEDWLYERLGGLF
P8_MyD88 Rank (after) [13]: 712 | P8_MyD88 Rank (before) [14]: 2696

SSFREGPWRLLELSKN
P3_MyD88 Rank (after) [10]: 609 | P3_MyD88 Rank (before) [11]: 3217

WDFASNMEQFWIVCI
P8_MyD88 Rank (after) [13]: 706 | P8_MyD88 Rank (before) [14]: 1619

DPQDLDWVYERLVSLI
P8_MyD88 Rank (after) [3]: 271 | P8_MyD88 Rank (before) [4]: 2825

SSFRKGVWRVRKLSKK
P3_MyD88 Rank (after) [13]: 717 | P3_MyD88 Rank (before) [14]: 3230

WALDEVLKIQDDNETM
P8_MyD88 Rank (after) [1]: 544 | P8_MyD88 Rank (before) [2]: 1423

DHHLDLPRGKAIKQEILG
Population [12]: 0.00495%

YYDSRWALNELLEIL
Rank (after) [15]: 903 | Rank (before) [16]: 1682

EWIREQLRPALKERMT
P3_MyD88 Rank (after) [10]: 619 | P3_MyD88 Rank (before) [11]: 2151

DHHLDLPRGKAIKPEIL
Rank (after) [5]: 108 | Rank (before) [6]: 953

DPQDLDWFYERREPA
P8_MyD88 Rank (after) [10]: 662 | P8_MyD88 Rank (before) [11]: 2790

YTALTYSGFHTFRDNV
P3_MyD88 Rank (after) [3]: 276 | P3_MyD88 Rank (before) [4]: 1642

YYLDHSHPRKQNGEFG
P3_MyD88 Rank (after) [1]: 556 | P3_MyD88 Rank (before) [2]: 1436

YTALTNSGFLSFRDTD
Rank (after) [5]: 428 | Rank (before) [6]: 1661

YAASMRWFGELAKIVG
P8_MyD88 Rank (after) [1]: 558 | P8_MyD88 Rank (before) [2]: 1710

DVLYWALTEAGIRVFR
Rank (after) [8]: 119 | Rank (before) [9]: 128 | Population [7]: 0.015%

SENYATSPWALKERLP
Rank (after) [5]: 133 | Rank (before) [6]: 734

YTALTNSRLHNFRDND
P3_MyD88 Rank (after) [13]: 696 | P3_MyD88 Rank (before) [14]: 1707

DPHDLVWFYERLVSLF
P8_MyD88 Rank (after) [3]: 230 | P8_MyD88 Rank (before) [4]: 2631

DLYDILYLYGRHTIFV
Rank (after) [15]: 881 | Rank (before) [16]: 2584

SSYRESLRRLPALSKK
P3_MyD88 Rank (after) [13]: 739 | P3_MyD88 Rank (before) [14]: 3266

ASSPWALYELVEILTA
P8_MyD88 Rank (after) [13]: 683 | P8_MyD88 Rank (before) [14]: 2333

SMTPLSDFWKELALVL
Rank (after) [8]: 97 | Rank (before) [9]: 101 | Population [7]: 0.0231%

KWLWDKLIYARSRNPH
P3_MyD88 Rank (after) [1]: 490 | P3_MyD88 Rank (before) [2]: 3584

DPQDLDWFYERQVSLL
Rank (after) [8]: 106 | Rank (before) [9]: 568

WALDLQWFYERLVSLI
Rank (after) [8]: 480 | Rank (before) [9]: 1518

DPQDLGCFYERLVSLF
P8_MyD88 Rank (after) [10]: 611 | P8_MyD88 Rank (before) [11]: 2721

KLDSARMRKVQRLRET
P3_MyD88 Rank (after) [1]: 576 | P3_MyD88 Rank (before) [2]: 3706

DHHLDLPRGKAIKPEILGH
P3_MyD88 Rank (after) [1]: 483 | P3_MyD88 Rank (before) [2]: 2026

PNLRTKVLNYLMRTKT
P8_MyD88 Rank (after) [13]: 705 | P8_MyD88 Rank (before) [14]: 3508

LNVEGWRQALEKAGKL
Rank (after) [5]: 131 | Rank (before) [6]: 2401

WDFASNMEQFWDRLIRMIE
P8_MyD88 Rank (after) [1]: 529 | P8_MyD88 Rank (before) [2]: 1611

WDFASTMEQLWARLYY
P8_MyD88 Rank (after) [1]: 498 | P8_MyD88 Rank (before) [2]: 1587

NGHENEIIKEIVETIV
P3_MyD88 Rank (after) [3]: 205 | P3_MyD88 Rank (before) [4]: 3381

TSTWALDELLRILY
Rank (after) [15]: 912 | Rank (before) [16]: 3824

YASSWWALEELLQILHARELF
Rank (after) [15]: 931 | Rank (before) [16]: 1850

DPQDLEWLYERLVSLF
Rank (after) [8]: 180 | Rank (before) [9]: 1108

RSFREGLWRLLELRKK
P3_MyD88 Rank (after) [10]: 629 | P3_MyD88 Rank (before) [11]: 2693

DSLFWDRLLYSL
Population [7]: 0.00732%
